Measurements from patent US4208417A, “Indole derivatives and their use as anxiolytics” (Pharmindustrie, priority 1978, dated 1980).
Where two headings read alike, the source gives them in different places.

Legend:
[1] = molecular target: benzodiazepine receptor (^3 H-diazepam binding sites, rat brain membranes)
Procedure: This efficacy is measured by Ki values in micro moles calculated by using the equation:
C=the concentration of ^3 H-diazepam,
KD =the affinity constant=2,74 μM, and
IC50 =the concentration causing 50% inhibition of ^3 H-diazepam binding.

[2] = Acute toxicity in mice (LD50); format: in vivo; settings: mouse, in vivo
Text: (§1) The following Table 2 contains values already given in U.S. Pat. No. 4,064,255 and supplies additional values obtained according to the same procedure.

Mice = assay: Acute toxicity in mice (LD50); format: in vivo
Text: as §1

[3] = iv, I.V., read-out: Acute toxicity LD50, I.V.
[4] = po, orally, read-out: Acute toxicity LD50, orally

Structure (SMILES) | Ki [1] | LD50 [2, 3] | LD50 [2, 4] | Acute toxicity LD50, I.V. (Mice) | Acute toxicity LD50, orally (Mice)
O=C(CC1CCNCC1)c1c[nH]c2ccccc12 [Example 1, Indolyl-3-(piperidyl-4-methyl)ketone] | 43 µM | 47 mg/kg | 300 to 900 mg/kg |  | 
COc1ccc2[nH]cc(CCC3CCNCC3)c2c1 [Example 8, [(Methoxy-5 indolyl-3)-2 ethyl]-4 piperidine] | 40 µM | 41 mg/kg | 675 mg/kg |  | 
Cn1cc(CCC2CCNCC2)c2ccccc21 [Example 9, [(Methyl-1 indolyl-3)-2 ethyl]-4 piperidine] | 90 µM |  |  | 44 mg/kg | 225 mg/kg
c1ccc2c(CCC3CCNCC3)c[nH]c2c1 [Example 10, [(Indolyl-3)-2 ethyl]-4 piperidine] | 64 µM |  |  | 60 mg/kg | 600 mg/kg
c1ccc2c(CC3CCNCC3)c[nH]c2c1 [Example 11, (Indolyl-3 methyl)-4 piperidine] | 90 µM |  |  | 57 mg/kg | 225 mg/kg
Clc1ccc2[nH]cc(CCC3CCNCC3)c2c1 [Example 12, [(Chloro-5 indolyl-3)-2 ethyl]-4 piperidine] | 37 µM | 85 mg/kg | 625 mg/kg |  | 
c1ccc2c(CCCC3CCNCC3)c[nH]c2c1 [Example 13, [(Indolyl-3)-3 propyl]-4 piperidine] | 70 µM | 29 mg/kg | 600 mg/kg |  | 
c1ccc(Cn2cc(CCC3CCNCC3)c3ccccc32)cc1 [Example 14, [(Benzyl-1 indolyl-3)-2 ethyl]-4 piperidine] | 33 µM | 33 mg/kg | 525 mg/kg |  | 
